In test [1] the target is Peptidyl-prolyl cis-trans isomerase FKBP1A (Homo sapiens, UniProt P62942). Put plainly: Compound was tested in vitro for its ability to compete with immobilized FK506 for binding to biotinylated FK506 binding protein 12 in a competitive binding assay.
A short description of test [2]: Compound was tested in vitro for its ability to inhibit the proliferation of the IL-6-dependent hybridoma clone B13-29-15. The test is classed as functional.
Test [3] in a line: Compound was tested in vitro for inhibitory activity in the mixed lymphocyte reaction (MLR) assay. The test is classed as functional.

These results are taken from ChEMBL document CHEMBL1131933, “Cleavage of the cyclohexyl-subunit of rapamycin results in loss of immunosuppressive activity” (Bioorg Med Chem Lett, 1999).

As a reminder, the IC50 is the concentration that inhibits the measured activity by half. Read a high IC50 as weaker potency.

Peptidyl-prolyl cis-trans isomerase FKBP1A, sequence (P62942 whole entry): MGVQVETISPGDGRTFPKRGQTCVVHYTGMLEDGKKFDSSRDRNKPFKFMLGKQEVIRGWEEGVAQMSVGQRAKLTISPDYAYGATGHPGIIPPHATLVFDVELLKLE

Turning to `COC(=O)CC[C@H](CCO)C[C@@H](C)[C@@H]1CC(=O)[C@H](C)/C=C(\C)[C@@H](O)[C@@H](OC)C(=O)[C@H](C)C[C@H](C)/C=C/C=C/C=C(\C)[C@@H](OC)C[C@@H]2CC[C@@H](C)[C@@](O)(O2)C(=O)C(=O)N2CCCC[C@H]2C(=O)O1`, the values for the IC50 in test [1], in test [2] and in test [3] were 3.4 nM, 200 nM and more than 380 nM, respectively.
On to `CO[C@H]1C[C@@H]2CC[C@@H](C)[C@@](O)(O2)C(=O)C(=O)N2CCCC[C@H]2C(=O)O[C@H]([C@H](C)C[C@@H]2CC[C@@H](O)[C@H](OC)C2)CC(=O)[C@H](C)/C=C(\C)[C@@H](O)[C@@H](OC)C(=O)[C@H](C)C[C@H](C)/C=C/C=C/C=C/1C` [SIROLIMUS], for which the IC50 in test [2] and in test [3] was 1 nM each time.
